The values that follow come from patent US20240009202A1, “MITOCHONDRIA-TARGETED ANTIOXIDANT AS AGENT FOR TREATING PATHOLOGIC INFLAMMATION CAUSED BY MABC-R INFECTION” (MITOIMMUNE THERAPEUTICS INC., priority 2020, published 2024).

One experiment has as its system mitochondrial ROS. The experiment in a line: MitoSOX Red staining of mitochondrial ROS in Mabc-R-infected BMDMs. The note with it: WT BMDMs, Mabc-R MOI=5, 2 hours, 20 μM, MitoSOX Red (FIG. 5A). Type of experiment: cell-based, mouse. How it is done:
(§1) Scale bar, 50 μm. (B to E) WT mice (n=5 each group) were left uninfected or infected intranasally with Mabc-R (1×10^7 CFU), prior to treatment with or without the compound represented by Chemical Formula 1 (30 mg/kg) and monitored at 10 days post-infection. […] The ratio of damaged mitochondria among total mitochondria was calculated quantitatively (scale bars, 200 nm). […] (*P<0.05, **P<0.01, ***P<0.001, n.s., not significant. One-way ANOVA (right) or non-parametric test (B, C, D right and E)). (Data represents three independent experiments (A left and D), and values represent means (±SEM) from three or four independent experiments performed in triplicate (A right, B, C, and E))
Mitochondrial ROS were measured as described previously in Reference. […] After 20 minutes, the cells were washed and measured using an immunofluorescence assay. […] The mean fluorescence intensity (MFI) level of mitochondrial ROS was calculated for each sample. Each experiment was performed in triplicate, and at least 200 cells per well were counted.
The mitochondrial ROS scavenger MIT-001 (previously, NecroX-7) removes mitochondrial ROS, calcium, and reactive nitrogen species (References [32 and 33]). […] The present inventors next determined whether inhibition of mitochondrial ROS generation enhanced antimicrobial effects in vivo. […]

Another experiment concerns Mabc-R. The experiment in a line: Pulmonary CFU assay in mice infected intranasally with Mabc-R. Particulars: WT mice, intranasal Mabc-R 1×10^7 CFU, 30 mg/kg at 1, 3, 5, 7 and 9 dpi, sacrificed at 10 dpi (FIG. 5B). Type of experiment: in vivo, mouse.
The test system of experiment [1] is inflammatory cytokines/chemokines (Tnf, Il1b, Il6, Cxcl2, Cxcl5). The experiment in a line: qRT-PCR analysis for cytokines/chemokines in lung tissues of Mabc-R-infected mice. The format is in vivo, mouse. The note with it: WT mice, intranasal Mabc-R 1×10^7 CFU, 30 mg/kg, 10 dpi (FIG. 5C). The method, then:
as §1
(§2) RNA extraction and qPCR were performed as described in Reference. Briefly, total RNA from BMDMs or lung tissues was isolated using the TRIzol reagent (Thermo Fisher Scientific). cDNA synthesis was performed using Superscript II reverse transcriptase (Invitrogen, 18064). qPCR was performed using cDNA, primers, and SYBR Green PCR Kits (Qiagen, 204074) using a Real-time PCR Cycler Rotor-Gene Q 2plex system (Qiagen GmbH, 9001620, Hilden, Germany). The samples were amplified for 50 cycles as follows: 95° C. for 5 seconds and 60° C. for 10 seconds. To analyze qPCR data, relative quantification was performed using the 2^ΔΔCt method using Gapdh as an internal control gene. Data was expressed as a relative fold change. […]
In general terms: In qPCR the cycle at which signal appears reflects the starting amount.

In the next experiment the test system is TNF. The experiment in a line: TNF secretion in lung tissues of Mabc-R-infected mice (ELISA). Type of experiment: in vivo, mouse. Particulars: Mabc-R-infected mice treated with MIT-001. The method, then: The concentration of TNF in lung tissues was measured using a commercially available ELISA kit (BD Biosciences, 558534, San Jose, CA, USA). Experiments were performed according to the protocol provided by the manufacturer.
We next examined the in vivo effects of MIT-001 on pathological inflammatory responses during Mabc-R infection.
(In general: In an ELISA, binding on a coated surface is turned into a signal by an enzyme label.)

The subject of experiment [2] is mitochondria in alveolar cells of lung tissues. The experiment in a line: TEM analysis of damaged mitochondria in lung tissues of Mabc-R-infected mice. Type of experiment: in vivo, mouse. The note with it: Mabc-R-infected mice vs vehicle control mice, 30 mg/kg, 10 dpi, TEM (FIG. 5D). How it is done:
as §1
SIRT3 WT and KO mouse lung tissues were fixed with 2.5% glutaraldehyde in a 0.1 M cacodylate buffer (pH 7.2) containing 0.1% CaCl2). After 3 hours, the cells were post-fixed with 1% OsO4 in a 0.1 M sodium cacodylate buffer containing 0.1% CaCl2) for 2 hours. The tissues were rinsed with cold distilled water and slowly dehydrated using an ethanol series and propylene oxide at 4° C. The tissues were embedded in Embed-812 and cured at 60° C. for 30 hours. Ultrathin sections (70 nm) were cut with a diamond knife and an ULTRACUT UC7 ultramicrotome (Leica) and mounted on formvar-coated copper grids. Sections were stained with 4% uranyl acetate for 7 minutes and lead citrate for 7 minutes. […]

The next experiment relates to Sirt3 mRNA. The experiment in a line: qRT-PCR analysis for Sirt3 mRNA expression in lungs of Mabc-R-infected mice. Type of experiment: in vivo, mouse. Particulars: 30 mg/kg, 10 dpi (FIG. 5E). The method, then: as §1, §2
In experiment [3] the test system is SIRT3. The experiment in a line: qRT-PCR of Tnf, Il6 and Cxcl2 in Mabc-R-infected BMDMs with 3-TYP. The format is cell-based, mouse. Particulars: 3-TYP 50 μM pretreatment, Mabc-R MOI=3, 3 hours (FIG. 3B). How it is done: (§3) BMDMs of B and PMs of C were prepared from SIRT3 WT and KO mice, and were infected with Mabc-R (MOI=3) in the presence or absence of 3-TYP (50 μM) for 3 hours. Quantitative real-time PCR analysis for Tnf, Il6, and Cxcl2 was performed. […] (Scale bar, 50 μm. *P<0.05, **P<0.01, ***P<0.001. UI, uninfected. One-way ANOVA (A to D). Data is representative of three independent experiments (D left), and values represent means (±SEM) from three or four independent experiments performed in triplicate (A to C, D right))
(§4) Primary mouse bone marrow-derived macrophages (BMDMs) were isolated and cultured as previously described. BMDMs were isolated and differentiated after culture for 4 to 5 days in medium containing 25 ng/mL macrophage colony-stimulating factor (R&D Systems, Minneapolis, MIN, USA). Peritoneal macrophages (PMs) were isolated 2 to 3 days after injection with 1 mL of PBS supplemented with 3% thioglycollate (Sigma-Aldrich, St. Louis, MO, USA). Prior to isolation, PMs in the mouse abdominal cavity were collected with pre-chilled PBS supplemented with 10% FBS. […]
(§5) RNA extraction and qPCR were performed as described in Reference. […] To analyze qPCR data, relative quantification was performed using the 2^ΔΔCt method using Gapdh as an internal control gene. Data was expressed as a relative fold change. […]

The test system of experiment [4] is SIRT3. The experiment in a line: qRT-PCR of Tnf, Il6 and Cxcl2 in Mabc-R-infected PMs with 3-TYP. The format is cell-based, mouse. The note with it: 3-TYP 50 μM pretreatment, Mabc-R MOI=3, 3 hours (FIG. 3C). The method, then: as §3, §4, §5

Turning to `O=S1(=O)CCN(Cc2cc(NC3CCOCC3)c3[nH]c(-c4ccccc4)cc3c2)CC1` [MIT-001, 5-[(1,1-dioxido-4-thiomorpholinyl)methyl]-2-phenyl-N-(tetrahydro-2H-pyran-4-yl)-1H-indol-7-amine], the “generation of mitochondrial ROS in response to Mabc-R infection” value in the experiment on mitochondrial ROS is reported as “remarkably suppressed”. Also, in the experiment with Mabc-R, the “in vivo bacterial loads in the lungs (pulmonary CFU)” value is “significantly inhibited”. In addition, the “mRNA expression of inflammatory cytokines/chemokines including Tnf, Il1b, Il6, Cxcl2 and Cxcl5 in lung tissues” value in experiment [1] was “remarkably ameliorated”. Also, in the experiment with TNF, the “TNF secretion in lung tissues” value is given as “significantly downregulated”. In experiment [2], the “damaged mitochondria with disrupted cristae in alveolar cells of lung tissues” value was “considerably fewer damaged mitochondria”. Besides, the “Sirt3 mRNA levels in mouse lungs” value in the experiment with Sirt3 mRNA is listed as “significantly recovered”.

As to `c1cncc(-c2cn[nH]n2)c1` [3-TYP], the “mRNA expression of proinflammatory cytokines (Tnf, Il6, Cxcl2) after infection with Mabc-R” value in the experiment with SIRT3 [3] (SIRT3 KO BMDMs) and with SIRT3 [4] (SIRT3 KO PMs) was “no significant effect” in each case. For the same compound, the “mRNA expression of Tnf, Il6, and Cxcl2 in response to Mabc-R” value with SIRT3 [3] (SIRT3 WT BMDMs) and in the experiment with SIRT3 [4] (SIRT3 WT PMs) was “significantly increased” in each case.
